Assays:
MSC [1] = test: Growth/proliferation of MSC isolated in 10% FBS and re-attached under serum-free conditions; type: cell-based; settings: fibronectin-coated; for MSC proliferation in serum free medium containing FGF2 (5 ng/ml): 5 days; for MSC proliferation in serum free medium: over 3 passages, days 5, 10 and 15
Procedure: Tissue culture flasks were pre-coated with FN (black), HA (blue), VN (red) or LN (green) and cells were allowed to adhere in serum-free conditions. Cell numbers were obtained after 5 days. Controls include serum-free plating without the presence of an ECM attachment factor and 10% FBS (grey). Results are representative of 3 biological replicates with n=2;
Cells were then cultured in the presence of growth factors and passaged every 5 days. Controls include serum free plating without growth factors and 10% FBS. Results are representative of 3 biological replicates with n=2;
Cells were then cultured in serum-free media containing FGF2 (5 ng/ml) in the presence of PGE2, cholesterol or lipoprotein for 5 days. Controls include serum free plating without growth factors 10% FBS (A). Cells were then cultured in the presence of lipoprotein and passaged every 5 days for 3 passages, controls include serum free plating without lipoprotein (B). Results are representative of 3 biological replicates with n=2;
(§1) Proliferation of the MSC attached in the presence of basic fibroblast growth factor (bFGF2, FGF2) was also assessed after 6 days.
Serum-free basal medium formulation was selected based on the literature describing low-serum cell culture of dental pulp stem cells (Tarle et al., 2010). The basal medium was composed of ITS (1%, BD), ascorbic acid (10 mM, Sigma Aldrich), dexamethasone (10 nM, Sigma Aldrich), human serum albumin (50 mg/ml, Sigma Aldrich), penicillin/streptomycin solution (1%, Gibco) and MEM-α (Gibco). The effect of a range of growth factors on MSC proliferation was then examined. MSC were attached on fibronectin-coated tissue culture plastic for 48 hours in serum-free basal medium.
The effect of FGF2/FGF4 and FGF7 (1, 5 and 10 ng/ml), PDGFaa/PDGFab and PDGFbb (1, 5 and 10 ng/ml) on MSC proliferation over 3 passages on days 5, 10 and 15 was examined.
To further enhance MSC viability and proliferation lipoprotein was added to the serum-free basal medium. MSC isolated in the presence of serum were seeded on fibronectin-coated tissue culture plastic in serum free medium containing FGF2. Initially a range of factors were screened to support MSC viability after trypsinisation; the effect of prostoglandin E2 (PGE2; 50 μg/ml), cholesterol (30 μg/ml) and lipoprotein (4 μg/ml) on MSC proliferation in serum free medium containing FGF2 (5 ng/ml) was examined.

MSC [2] = test: Attachment of MSC isolated in 10% FBS and re-attached under serum-free conditions; type: cell-based; settings: EGF 10 ng/ml, serum free with FGF2, 3 passages
Source text: Tissue culture flasks were pre-coated with fibronectin (FN; black), hylauronic acid (HA; blue), vitronectin (VN; red) or laminin (LN; green) and cells were allowed to adhere in serum-free conditions. Controls include serum-free plating without the presence of an extra-cellular matrix (ECM) attachment factor and 10% FBS (grey). Results are representative of 3 biological replicates with n=2;
MSC were attached on tissue culture flasks in the presence of EGF (red) or on tissue culture plastic precoated with FN (purple) or in the presence of EGF on fibronectin coated plastic (green) and passaged every 3 days. Controls include serum free plating without the presence of an ECM attachment factor (blue) and 10% FBS (black). Results are representative of 3 biological replicates with n=2;
as §1

MSC [3] = test: Serum-free MSC isolation from bone marrow (CFU and cell number at end of primary culture); type: cell-based
Procedure: The number of colony forming units (CFU; FIG. 6A) and cell number (FIG. 6B) was determined at the end of primary culture. An additional marrow was seeded on tissue culture plastic pre-coated with varying concentrations of fibronectin to determine optimal concentration of fibronectin required. The number of CFU (FIG. 6C) and cell yield (FIG. 6D) was determined at the end of primary culture. Controls include MSC isolation in the presence of 10% FBS or on non-coated tissue culture plastic;
The number of colony forming units (FIG. 7A) and cell number (FIG. 7B) was determined at the end of primary culture. Controls include MSC isolation in the presence of 10% FBS or on non-coated tissue culture plastic;
Initially MSC were isolated from three bone marrows to determine a suitable attachment substrate. […] A further bone marrow donor was then screened to determine the optimal fibronectin concentration; 6 μg/ml was selected as the favourable concentration (FIGS. 6C and 6D).
To examine the role of EGF in MSC isolation and attachment, 5 bone marrows were tested. MSC were isolated in the presence of FGF2 (5 ng/ml) on fibronectin coated plastic in the presence of EGF, or on tissue culture plastic in the presence of EGF.

[4] = test system: bone marrow mononuclear cells (MNCs); test: CFU-f assay, SF medium with various lipoproteins or fibronectin; type: cell-based, human; settings: no fibronectin vs pre-coating vs fibronectin added to the medium; standard SF medium with LDL
Procedure: For the lipoprotein study, Serum Free (SF) media was prepared containing: no lipoprotein (No lipo), very low density lipoprotein (VLDL), low density lipoprotein (LDL) and high density lipoprotein (HDL). Other lipoproteins that exist are chylomicrons and intermediate density lipoprotein which were not assessed in this study as they were not commercially available at the time. MSCs were isolated from bone marrow based on plastic adherence in SF medium by plating 40×10^6 human bone marrow mononuclear cells/T-175 and culturing at 37° C., 5% CO2, 21% O2. Cells were subcultured once they had reached 80-90% confluence. MSCs were evaluated by assessing growth kinetics, tri-lineage differentiation and surface marker phenotype at the end of passage 3 (P3). For the lipoprotein study, SF medium was modified to contain one of the various lipoproteins at 80 ng/mL and these cells are seeded onto T175 flasks, which had been pre-coated with fibronectin. For the fibronectin study described, standard SF medium containing LDL (Standard Formulation) was used and cells were seeded onto T175 flasks without fibronectin, with fibronectin pre-coating or with fibronectin added to the medium itself. CFU-f assays were carried out by seeding bone marrow mononuclear cells (MNCs) at a density of 1×10^6 MNC/10 cm^2 in triplicate in 6-well plates. […]

MSCs = test: Growth kinetics of MSC cultures, lipoprotein and fibronectin study; type: cell-based, human; settings: no fibronectin vs pre-coating vs fibronectin in the medium
Procedure: MSCs were isolated from bone marrow based on plastic adherence in SF medium by plating 40×10^6 human bone marrow mononuclear cells/T-175 and culturing at 37° C., 5% CO2, 21% O2. Cells were subcultured once they had reached 80-90% confluence. MSCs were evaluated by assessing growth kinetics, tri-lineage differentiation and surface marker phenotype at the end of passage 3 (P3). For the lipoprotein study, SF medium was modified to contain one of the various lipoproteins at 80 ng/mL and these cells are seeded onto T175 flasks, which had been pre-coated with fibronectin. […]
VLDL and LDL are involved in trafficking fats to cells in arteries which may indicate why these groups had cells which formed more disperse healthier looking CFU-fs. […] Applying these CFU-f numbers with cell yields at the end of each passage, growth curves were calculated. […]
The final aim of this work was to determine if fibronectin is required for isolation and establishment of MSC cultures in the proprietary serum-free medium. […] This was assessed by looking at CFU-f numbers and growth kinetics of cells isolated from bone marrow directly onto tissue culture plastic without fibronectin, onto tissue culture plastic pre-coated with fibronectin and finally with fibronectin incorporated into the medium itself.

[5] = three bone marrows, attachment substrate vs vitronectin and hyaluronic acid

CCCCC[C@H](O)/C=C/[C@H]1[C@H](O)CC(=O)[C@@H]1C/C=C\CCCC(=O)O [PGE2, prostoglandin E2, reference compound]
MSC proliferation in serum free medium containing FGF2 (5 ng/ml) (MSC [1]; 50 μg/ml): inhibitory effect

CC(C)CCC[C@@H](C)[C@H]1CC[C@H]2[C@@H]3CC=C4C[C@@H](O)CC[C@]4(C)[C@H]3CC[C@]12C [cholesterol, reference compound]
MSC proliferation in serum free medium containing FGF2 (5 ng/ml) (MSC [1]; 30 μg/ml): inhibitory effect

EGF: epidermal growth factor
MSC attachment over passaging (MSC [2]): increased MSC attachment

FGF2: basic fibroblast growth factor
MSC proliferation in serum free medium (MSC [1]; 5 ng/ml): increased MSC proliferation

PDGFab: growth factor PDGFab
MSC proliferation in serum free medium (MSC [1]; 10 ng/ml): increased MSC proliferation

fibronectin
requirement for MSC attachment (MSC [3]; 5 bone marrows, FGF2 5 ng/ml, with EGF, coated vs uncoated plastic): required
cell number at the end of the first passage (MSC [3]; [5]): greatest cell number
colony forming units (MSC [3]; [5]): more colony forming units
ability of CFU-fs to form / CFU-f numbers with or without fibronectin [4]: No difference
growth kinetics of the MSC cultures with or without fibronectin (MSCs): unaffected

— US10472605B2, “Serum-free medium” (National University of Ireland, Galway, priority 2014, dated 2019)
